Tests used:
[1] = tested on: primary neonatal mouse astrocyte cultures; assay: RNase protection assay (RPA) for chemokine/cytokine transcripts in astrocyte cultures; type: cell-based
Experimental: Astrocyte isolation and culture. […] RNA isolation and RNase protection assay (RPA). […] RNase protection assays (RPA) for chemokine message were conducted with multi-probe templates according to the manufacture's protocol (RiboQuant assay kit, BD-PharMingen, San Diego, Calif.). Gels were scanned and radioactive bands quantitated using a phosphoimager (Molecular Dynamics, Sunnyvale, Calif.). Levels of uniformly expressed housekeeping genes large ribosomal subunit protein 32-3A (L32) or glyceraldehyde-3-phosphate dehydrogenase (GAPDH), were used for normalization. The value of each chemokine receptor band divided by the value of the indicated housekeeping gene band in the same sample yielded the relative intensity. Normalized receptor expression represents the ratio of the relative intensity following treatment with chemokine versus the relative intensity of medium alone. Treatment with pharmacological inhibitors. Astrocytes were washed and resuspended in serum-and insulin-free complete medium and starved overnight. Cells were treated at 37° C. for 1 h with 100 ng/ml Pertussis toxin (PTx) before addition of RANTES or IL-1. […] The cells were harvested after a 3 h incubation with RANTES; RNA was prepared and assayed by RPA.

[2] = tested on: MEK, ERK1/2, p90RSK, p38, SAPK/JNK phosphorylation in astrocytes; assay: Western blotting of phosphorylated MAP kinase pathway proteins in astrocyte lysates; type: cell-based, mouse
Experimental: SDS-PAGE and Western blotting. Astrocytes were treated for the indicated time with media or 100 ng/ml RANTES, eotaxin, or other materials as indicated. Cells (3×10^5 in Examples 1-3, or 2×10^4 in later Examples) were resuspended in 100 μl buffer (50 mM HEPES, pH 7.5, 150 mM NaCl, 2 mM EDTA, 2 mM EGTA, 1% Triton X-100, 50 mM Sodium fluoride, 5 mM Sodium pyrophosphate, 50 mM Sodium β-glycerophosphate, 1 mM Sodium Ortho-vanadate, 1 mM DTT, 1 mM PMSF, 10 μg/ml Leupeptin, and 10 μg/ml Aprotinin). Protein concentration of the whole cell extract was determined by BCA protein assay kit (Pierce, Rockford, Ill.). Samples (10 μg) were loaded and separated on a 10% SDS-polyacrylamide gel. After transfer to Hybond ECL nitrocellulose membrane (Amersham Pharmacia Biotech Inc, Piscataway, N.J.) or Zeta-probe blotting membranes (Bio-Rad, Richmond Calif.) blots were blocked overnight with 5% BSA at 4° C., and probed with the antibody indicated. Antibody against unphosphorylated or phosphorylated erk (Cell Signaling, Beverly, Mass.) was used at 1 μg/ml. Appropriate anti-immunoglobulin reagents were used to develop the blots by enhanced chemiluminescence (Amersham Pharmacia Biotech Inc, Piscataway, N.J.).
Little is known about the signaling mechanisms involved in astrocyte respones to chemokines. To examine components of the RANTES signal transduction pathway, phosphorylation of the MAP kinase kinase (MEK) and mitogen activated protein (MAP) kinases was examined. To minimize basal kinase activity, astrocytes were starved of serum for at least 3 h before treatment with chemokine. Whole cell lysates were separated by SDS-PAGE and examined by Western blot. Antibodies that specifically react with phosphorylated MEK or phosphorylated extracellular signal-related kinase (ERK) were used to detect the active kinases.

[3] = tested on: CXCR4, CX3CR1, CCR1, CCR5 transcripts in astrocytes; assay: RPA for chemokine receptor transcripts in astrocytes; type: cell-based, mouse; conditions: average, pooled results of 3-4 experiments
Experimental: RNA isolation and RNase protection assay (RPA). RNA was prepared as in Luo, Y., et al. 1999. J Immunol 163:3985. RNase protection assays (RPA) for chemokine message were conducted with multi-probe templates according to the manufacture's protocol (RiboQuant assay kit, BD-PharMingen, San Diego, Calif.). Gels were scanned and radioactive bands quantitated using a phosphoimager (Molecular Dynamics, Sunnyvale, Calif.). Levels of uniformly expressed housekeeping genes large ribosomal subunit protein 32-3A (L32) or glyceraldehyde-3-phosphate dehydrogenase (GAPDH), were used for normalization. The value of each chemokine receptor band divided by the value of the indicated housekeeping gene band in the same sample yielded the relative intensity. Normalized receptor expression represents the ratio of the relative intensity following treatment with chemokine versus the relative intensity of medium alone.
Treatment with the RANTES-related chemokines RANTES or eotaxin, or with TNF-α also found to down-regulate expression of CX3CR1 transcripts. In addition, CXCR4 mRNA levels were decreased, while the levels of CCR1 transcripts were elevated. In contrast, little or no regulation of CCR5 was noted. The pooled results of 3-4 experiments indicate eotaxin caused an average 60% decrease in CXCR4 (P less than 0.01) and a 70% decrease in CX3CR1 mRNA (P less than 0.02) (FIG. 8.B). The effects of RANTES stimulation were similar with an average 70 and 90% reduction in CXCR4 and CX3CR1 transcripts, respectively (P less than 0.01).

[4] = tested on: phosphorylated RSK in astrocytes; assay: Immunofluorescence of phospho-p90RSK translocation; type: cell-based, mouse; conditions: 100 ng/ml RANTES, 5 or 20 min
Experimental: Immunofluorescence. Astrocytes were grown on glass coverslips for a day; the cells were then serum-starved for three hours. Astrocytes were treated with RANTES for 5 or 20 minutes. Following treatment, cells were fixed in −20° C. methanol, permeabilized in ice-cold 0.2% Triton X-100 in PBS and incubated with phospho-p90RSK (Thr360/Ser364) antibody overnight at 4° C., followed by incubation with Alexa Fluor 555 goat anti-rabbit IgG (Molecular Probes, Eugene, Oreg.). Nuclei were stained with Hoechst 33258 (1:2000) for 5 min; coverslips were mounted on slides using the ProLong Antifade Kit (Molecular Probes, Eugene, Oreg.). Slides were stored at room temperature in the dark until observation.
The ability of RANTES to induce nuclear translocation of RSK was examined.

GFAP in astrocytes = assay: Immunofluorescence of GFAP in astrocytes; type: cell-based, mouse; conditions: 100 ng/ml RANTES for 1-5 days
Experimental: Astrocytes associated with Alzheimer's Disease, MS and EAE lesions frequently display increased levels of the intracellular marker GFAP, an indicator of astrogliosis (Xu et al., 1999. Glia 25:390-403). To determine if chemokines could modulate GFAP expression astrocytes were treated with 100 ng/ml RANTES for 1-5 days and then examined for the intracellular marker GFAP by conventional immunofluorescence. Evidence for modulation of GFAP was not observed.

- production of chemokine transcripts by astrocytes from mice deficient for CCR1, CCR2, CCR3, or CCR5 ([1]; 100 ng/ml): specifically responded
- expression of TNF-α, RANTES, KC, MIP-1α, MIP-2, and MCP-1 transcripts ([1]; BALB/cJ neonatal astrocytes, chemokine for 6 h): up-regulated
- duration of RANTES transcription ([1]; RANTES-induced): greater than 24 h
- time after which TNF-α mRNA disappeared ([1]; RANTES-induced): 18 h
- time at which TNF-α mRNA was detected ([1]; RANTES-induced): 1.5 h
- time at which bands for RANTES and MIP-1α were visible ([1]; RANTES-induced): 3 h
- time by which MIP-1α mRNA was down regulated ([1]; RANTES-induced): ≤ 24 h
- time of transient production of IL-6 transcripts ([1]; RANTES-induced): 6 to 24 h
- transcripts for the chemokine TCA3 ([1]; RANTES-induced, any time point): not detected
- time at which RANTES and IL-6 transcripts appear ([1]; after RANTES stimulation): 4 to 8 h
- time at which TNF-α, KC, and MIP-2 transcripts were detected ([1]; after RANTES stimulation): 60 to 90 min
- time at which bands for MIP-1α and MCP-1 became visible ([1]; after RANTES stimulation): 2 h
- expression of TNF-α, RANTES, KC, IL-6, MIP-1α, MIP-2, and MCP-1 transcripts ([1]; astrocytes treated with RANTES, time course): up-regulated
- concentration yielding optimal stimulation of transcripts ([1]; preliminary experiments): 100 ng/mL
- decrease in CX3CR1 mRNA [3]: 90%
- decrease in CXCR4 mRNA [3]: 70%
Substance: RANTES
- ability to induce chemokine transcripts after boiling ([1]; boiled for 30 min before incubation with astrocytes): completely destroyed
- duration of phosphorylation of MEK, ERK1 and ERK2 ([2]; 100 ng/ml RANTES): over 2 h
- duration of phosphorylation of RSK ([2]; 100 ng/ml RANTES): over 2 h
- phosphorylation state of Raf-1 Ser 259 ([2]; 100 ng/ml RANTES): dephosphorylation
- time of appearance of phosphorylation of MEK, ERK1 and ERK2 ([2]; 100 ng/ml RANTES): ≤ 5 min
- time of peak phosphorylation of MEK, ERK1 and ERK2 ([2]; 100 ng/ml RANTES): 20 to 60 min
- time of peak phosphorylation of RSK ([2]; 100 ng/ml RANTES): 60 min
- time of appearance of phosphorylation of RSK ([2]; 100 ng/ml RANTES, Ser381, Thr360/Ser364, Thr574): ≤ 5 min
- phosphorylation of p38 or SAPK/JNK ([2]; 100 ng/ml, 20 min, 5 to 120 min): failed to phosphorylate
- nuclear translocation of phosphorylated RSK [4]: nuclear translocation was noted at 5 min
- modulation of GFAP (GFAP in astrocytes): not observed
